From PMC5904222, “Synthesis and anticancer activity of multisubstituted purines and xanthines with one or two propynylthio and aminobutynylthio groups” (Medicinal Chemistry Research, 2018)
In brackets after ≈: the same amount, converted by molar mass.

System: SNB-19 (human glioblastoma)
Assay: WST-1 proliferation assay, SNB-19
Type: cell-based
Conditions: Homo sapiens, SNB-19, 72 h, SNB-19 cells, 72 h exposure, read-out: Antiproliferative activity IC50 SNB-19
Description: (§1) Compounds were evaluated for their anticancer activity using three cultured cell lines: SNB-19 (human glioblastoma, DSMZ - German Collection of Microorganisms and Cell Cultures, Braunschweig, Germany), C-32 (human amelanotic melanoma, ATCC-American Type Culture Collection, Manassas, VA, USA), MDA-MB-231 (human adenocarcinoma mammary gland, ATCC, Manassas, VA, USA), and HFF-1 (human fibroblast cell line, ATCC, Manassas, VA, USA). The cultured cells were kept at 37 °C and 5% CO2. The cells were seeded (1 × 10^4 cells/well/100 μL DMEM supplemented with 10% FCS and streptomycin and penicillin) using 96-well plates (Corning). The cells were counted in a hemocytometer (Burker’s chamber) using a phase contrast Olympus IX50 microscope equipped with Sony SSC-DC58 AP camera and Olympus DP10 digital camera.
(§2) The antiproliferative effect of the compounds obtained from both the cancer and the normal cells was determined using the Cell Proliferation Reagent WST-1 assay (Roche Diagnostics, Mannheim, Germany). This colorimetric assay is based on the viable cell’s ability to cause the bright red-colored stable tetrazolium salt (2-(4-iodophenyl)-3-(4-nitrophenyl)-5-(2,4-disulfophenyl)-2H-tetrazolium, monosodium salt) to cleave to the dark red soluble formazan by cellular enzymes. An expansion in the number of viable cells results in an increase in the overall activity of mitochondrial dehydrogenases in the sample. An increase in the amount of formazan dye formed correlates to the number of metabolically active cells in the culture. The formazan dye produced by metabolically active cells is quantified by a scanning ELISA reader that measures the absorbance of the dye solution at appropriate wavelengths. The examined cells were exposed to the tested compounds for 72 h at various concentrations between 0.1 and 100 μg/mL (prepared initially at a concentration of 1 mg/mL in DMSO). The control was performed in order to check that DMSO has no effect on the cells at the concentration used. The cells were incubated with WST-1 (10 μL) for 1 h and the absorbance of the samples was measured against a background control at 450 nm using a microplate reader with a reference wavelength at 600 nm. The results are expressed as the means of at least two independent experiments performed in triplicate. […] The IC50 values (a concentration of a compound that is required for 50% inhibition) were calculated from the dose–response relationship with respect to control.

IC50 [µg/mL] | SMILES
19.4 (≈ 44 µM) | Cn1cnc2nc(SCC#CCN3CCCC3)nc(SCC#CCN3CCCC3)c21 [Compound 5a, 2,6-Di(4-N-pyrrolidinylbut-2-ynylthio)-7-methylpurine]
4.64 (≈ 9.9 µM) | Cn1cnc2nc(SCC#CCN3CCCCC3)nc(SCC#CCN3CCCCC3)c21 [Compound 5b, 2,6-Di(4-N-piperidinylbut-2-ynylthio)-7-methylpurine]
21.5 (≈ 45.6 µM) | Cn1cnc2nc(SCC#CCN3CCOCC3)nc(SCC#CCN3CCOCC3)c21 [Compound 5c, 2,6-Di(4-N-morpholinylbut-2-ynylthio)-7-methylpurine]
48.9 (≈ 110 µM) | CCN(CC)CC#CCSc1nc(SCC#CCN(CC)CC)c2c(ncn2C)n1 [Compound 5d, 2,6-Di(4-diethylaminobut-2-ynylthio)-7-methylpurine]

The next lines start with the compound.

SMILES | IC50 [µg/mL]
Cn1cnc2nc(Cl)nc(SCC#CCN3CCCCC3)c21 [Compound 2a, 2-Chloro-6-(4-N-piperidinylbut-2-ynylthio)-7-methylpurine] | 28.8 (≈ 85.7 µM)
Cn1cnc2nc(Cl)nc(SCC#CCN3CCOCC3)c21 [Compound 2b, 2-Chloro-6-(4-N-morpholinylbut-2-ynylthio)-7-methylpurine] | 35.4 (≈ 105 µM)
CCN(CC)CC#CCSc1nc(Cl)nc2ncn(C)c12 [Compound 2c, 2-Chloro-6-(4-diethylaminobut-2-ynylthio)-7-methylpurine] | 17.4 (≈ 53.7 µM)
C#CCSc1nc(SCC#C)c2c(ncn2C)n1 [Compound 4, 2,6-di(prop-2-ynylthio)-7-methylpurine] | 15 (≈ 54.7 µM)
C#CCSc1nc2c(c(=O)[nH]c(=O)n2C)n1C [Compound 9, 8-(prop-2-ynylthio)-3,7-dimethylxanthine] | > 100

Same assay, conditions: SNB-19 cells, 72 h exposure

Antiproliferative activity IC50 SNB-19 [µg/mL] | SMILES
191.10 | C#CCSc1nc2c(c(=O)[nH]c(=O)n2C)n1C [Compound 9, 8-(prop-2-ynylthio)-3,7-dimethylxanthine]

System: C-32 (human amelanotic melanoma)
Assay: WST-1 proliferation assay, C-32
Type: cell-based
Conditions: C-32 cells, 72 h exposure
Description: as §1, §2

Antiproliferative activity IC50 C-32 [µg/mL] | SMILES
103.46 | C#CCSc1nc2c(c(=O)[nH]c(=O)n2C)n1C [Compound 9, 8-(prop-2-ynylthio)-3,7-dimethylxanthine]

Same assay, conditions: Homo sapiens, C32, 72 h, C-32 cells, 72 h exposure, read-out: Antiproliferative activity IC50 C-32

IC50 [µg/mL] | SMILES
6.81 (≈ 15.5 µM) | Cn1cnc2nc(SCC#CCN3CCCC3)nc(SCC#CCN3CCCC3)c21 [Compound 5a, 2,6-Di(4-N-pyrrolidinylbut-2-ynylthio)-7-methylpurine]
6.39 (≈ 13.6 µM) | Cn1cnc2nc(SCC#CCN3CCCCC3)nc(SCC#CCN3CCCCC3)c21 [Compound 5b, 2,6-Di(4-N-piperidinylbut-2-ynylthio)-7-methylpurine]
0.35 (≈ 0.741 µM) | Cn1cnc2nc(SCC#CCN3CCOCC3)nc(SCC#CCN3CCOCC3)c21 [Compound 5c, 2,6-Di(4-N-morpholinylbut-2-ynylthio)-7-methylpurine]
23.9 (≈ 53.7 µM) | CCN(CC)CC#CCSc1nc(SCC#CCN(CC)CC)c2c(ncn2C)n1 [Compound 5d, 2,6-Di(4-diethylaminobut-2-ynylthio)-7-methylpurine]

Second part, the compound before the results:

SMILES | IC50 [µg/mL]
Cn1cnc2nc(Cl)nc(SCC#CCN3CCCCC3)c21 [Compound 2a, 2-Chloro-6-(4-N-piperidinylbut-2-ynylthio)-7-methylpurine] | 21 (≈ 62.6 µM)
Cn1cnc2nc(Cl)nc(SCC#CCN3CCOCC3)c21 [Compound 2b, 2-Chloro-6-(4-N-morpholinylbut-2-ynylthio)-7-methylpurine] | 125 (≈ 370 µM)
CCN(CC)CC#CCSc1nc(Cl)nc2ncn(C)c12 [Compound 2c, 2-Chloro-6-(4-diethylaminobut-2-ynylthio)-7-methylpurine] | 11.9 (≈ 36.7 µM)
C#CCSc1nc2c(c(=O)[nH]c(=O)n2C)n1C [Compound 9, 8-(prop-2-ynylthio)-3,7-dimethylxanthine] | > 100

System: MDA-MB-231 (human adenocarcinoma mammary gland)
Assay: WST-1 proliferation assay, MDA-MB-231
Type: cell-based
Conditions: Homo sapiens, MDA-MB-231, 72 h, MDA-MB-231 cells, 72 h exposure, read-out: Antiproliferative activity IC50 MDA-MB-231
Description: as §1, §2

IC50 [µg/mL] | SMILES
19.9 (≈ 45.3 µM) | Cn1cnc2nc(SCC#CCN3CCCC3)nc(SCC#CCN3CCCC3)c21 [Compound 5a, 2,6-Di(4-N-pyrrolidinylbut-2-ynylthio)-7-methylpurine]
7.35 (≈ 15.7 µM) | Cn1cnc2nc(SCC#CCN3CCCCC3)nc(SCC#CCN3CCCCC3)c21 [Compound 5b, 2,6-Di(4-N-piperidinylbut-2-ynylthio)-7-methylpurine]
50.8 (≈ 107 µM) | Cn1cnc2nc(SCC#CCN3CCOCC3)nc(SCC#CCN3CCOCC3)c21 [Compound 5c, 2,6-Di(4-N-morpholinylbut-2-ynylthio)-7-methylpurine]
38.5 (≈ 86.6 µM) | CCN(CC)CC#CCSc1nc(SCC#CCN(CC)CC)c2c(ncn2C)n1 [Compound 5d, 2,6-Di(4-diethylaminobut-2-ynylthio)-7-methylpurine]

The next lines start with the compound.

SMILES | IC50 [µg/mL]
Cn1cnc2nc(Cl)nc(SCC#CCN3CCCCC3)c21 [Compound 2a, 2-Chloro-6-(4-N-piperidinylbut-2-ynylthio)-7-methylpurine] | 33.4 (≈ 99.4 µM)
Cn1cnc2nc(Cl)nc(SCC#CCN3CCOCC3)c21 [Compound 2b, 2-Chloro-6-(4-N-morpholinylbut-2-ynylthio)-7-methylpurine] | 66.3 (≈ 196 µM)
CCN(CC)CC#CCSc1nc(Cl)nc2ncn(C)c12 [Compound 2c, 2-Chloro-6-(4-diethylaminobut-2-ynylthio)-7-methylpurine] | 48.1 (≈ 148 µM)
C#CCSc1nc2c(c(=O)[nH]c(=O)n2C)n1C [Compound 9, 8-(prop-2-ynylthio)-3,7-dimethylxanthine] | > 100

Same assay, conditions: MDA-MB-231 cells, 72 h exposure

Antiproliferative activity IC50 MDA-MB-231 [µg/mL] | SMILES
169.34 | C#CCSc1nc2c(c(=O)[nH]c(=O)n2C)n1C [Compound 9, 8-(prop-2-ynylthio)-3,7-dimethylxanthine]

System: HFF-1 (human fibroblast cell line)
Assay: WST-1 proliferation assay, normal fibroblasts HFF-1
Type: cell-based
Conditions: normal human fibroblasts HFF-1
Description: as §1
as §2, with “The control was performed in order to check that DMSO has no effect on the cells at the concentration used.” left out

SMILES | cytotoxicity on the normal human fibroblasts (HFF-1), in words
C#CCSc1nc(SCC#C)c2c(ncn2C)n1 [Compound 4, 2,6-di(prop-2-ynylthio)-7-methylpurine] | relatively weak cytotoxicity

Same assay, conditions: normal human fibroblasts HFF-1, 72 h exposure, WST-1; read-out: Antiproliferative activity IC50 HFF-1

SMILES | IC50 [µg/mL]
Cn1cnc2nc(Cl)nc(SCC#CCN3CCCCC3)c21 [Compound 2a, 2-Chloro-6-(4-N-piperidinylbut-2-ynylthio)-7-methylpurine] | 35.4 (≈ 105 µM)
Cn1cnc2nc(Cl)nc(SCC#CCN3CCOCC3)c21 [Compound 2b, 2-Chloro-6-(4-N-morpholinylbut-2-ynylthio)-7-methylpurine] | 20.1 (≈ 59.5 µM)
CCN(CC)CC#CCSc1nc(Cl)nc2ncn(C)c12 [Compound 2c, 2-Chloro-6-(4-diethylaminobut-2-ynylthio)-7-methylpurine] | 8.65 (≈ 26.7 µM)
C#CCSc1nc(SCC#C)c2c(ncn2C)n1 [Compound 4, 2,6-di(prop-2-ynylthio)-7-methylpurine] | 10 (≈ 36.4 µM)
Cn1cnc2nc(SCC#CCN3CCCC3)nc(SCC#CCN3CCCC3)c21 [Compound 5a, 2,6-Di(4-N-pyrrolidinylbut-2-ynylthio)-7-methylpurine] | 10 (≈ 22.7 µM)
Cn1cnc2nc(SCC#CCN3CCCCC3)nc(SCC#CCN3CCCCC3)c21 [Compound 5b, 2,6-Di(4-N-piperidinylbut-2-ynylthio)-7-methylpurine] | 3.98 (≈ 8.49 µM)
Cn1cnc2nc(SCC#CCN3CCOCC3)nc(SCC#CCN3CCOCC3)c21 [Compound 5c, 2,6-Di(4-N-morpholinylbut-2-ynylthio)-7-methylpurine] | 0.37 (≈ 0.783 µM)
CCN(CC)CC#CCSc1nc(SCC#CCN(CC)CC)c2c(ncn2C)n1 [Compound 5d, 2,6-Di(4-diethylaminobut-2-ynylthio)-7-methylpurine] | 5.95 (≈ 13.4 µM)
C#CCSc1nc2c(c(=O)[nH]c(=O)n2C)n1C [Compound 9, 8-(prop-2-ynylthio)-3,7-dimethylxanthine] | 154 (≈ 614 µM)

System: not given
Assay: not given
Conditions: not given

melting point [°C] | SMILES
97 to 99 | Cn1cnc2nc(SCC#CCN3CCCC3)nc(SCC#CCN3CCCC3)c21 [Compound 5a, 2,6-Di(4-N-pyrrolidinylbut-2-ynylthio)-7-methylpurine]
130 to 132 | Cn1cnc2nc(SCC#CCN3CCCCC3)nc(SCC#CCN3CCCCC3)c21 [Compound 5b, 2,6-Di(4-N-piperidinylbut-2-ynylthio)-7-methylpurine]
121 to 123 | Cn1cnc2nc(SCC#CCN3CCOCC3)nc(SCC#CCN3CCOCC3)c21 [Compound 5c, 2,6-Di(4-N-morpholinylbut-2-ynylthio)-7-methylpurine]
77 to 79 | CCN(CC)CC#CCSc1nc(SCC#CCN(CC)CC)c2c(ncn2C)n1 [Compound 5d, 2,6-Di(4-diethylaminobut-2-ynylthio)-7-methylpurine]

The remaining lines, values behind:

SMILES | melting point [°C]
Cn1cnc2nc(Cl)nc(SCC#CCN3CCCCC3)c21 [Compound 2a, 2-Chloro-6-(4-N-piperidinylbut-2-ynylthio)-7-methylpurine] | 122 to 124
Cn1cnc2nc(Cl)nc(SCC#CCN3CCOCC3)c21 [Compound 2b, 2-Chloro-6-(4-N-morpholinylbut-2-ynylthio)-7-methylpurine] | 168 to 169
CCN(CC)CC#CCSc1nc(Cl)nc2ncn(C)c12 [Compound 2c, 2-Chloro-6-(4-diethylaminobut-2-ynylthio)-7-methylpurine] | 117 to 118
C#CCSc1nc(SCC#C)c2c(ncn2C)n1 [Compound 4, 2,6-di(prop-2-ynylthio)-7-methylpurine] | 162 to 164
C#CCSc1nc2c(c(=O)[nH]c(=O)n2C)n1C [Compound 9, 8-(prop-2-ynylthio)-3,7-dimethylxanthine] | 252 to 253
